Patent US20240207421A1, “NERVE TARGETING PEPTIDES AND METHODS OF USE” (ALUME BIOSCIENCES, INC., priority 2020, published 2024)

test system: Human MPZ; experiment: Phage display library screening (Example 2, Python script analysis), binding to Human MPZ; details: combined unique sequence count, Python/R script analysis
Procedure: (§1) Phage display library screens were used to identify peptides that bind to target proteins (including specific laminin trimers) that are expressed in human nerves, as described in Table 3. These screens were also carried out to identify peptides that could bind selectively to nerves versus muscle. Such peptides could therefore be useful for systemic in-vivo labeling of nerves during fluorescence assisted surgery. Specifically, m 13 phage libraries expressing 7 or 12 random amino acid peptides, or a cyclic peptide CX7C, on the N-terminus of the minor coat protein pIII (New England Biolabs; NEB) were processed through multiple rounds of selection for binding to target proteins expressed in nerves, or to excised human nerves, nerve extracts, or muscle, as described further below.
(§2) For screening against the specified target proteins in Table 1, including LN211, LN411, LN421, and LN521, the phage library was processed by up to 4 binding and wash cycles. For selection, phage libraries were incubated for up to 24 hours at 4° C. in 96 well plates that had been coated with one of the target proteins. Plates were then washed with PBS and phage were eluted using 0.2M glycine pH 2.0. Phage supernatants where then neutralized with Tris pH 9.0 prior to plating on TGI bacteria and LB agar plates. Colonies were counted to determine titer followed by DNA preparation of pools of phage and NextGen sequencing. After rounds of selection, phage were pooled and amplified for iterative selection. Phage that were bound at each round were sequenced. NextGen sequencing of pools after 2, 3 and 4 rounds of selection was used to isolate candidate sequences that were analyzed further to identify those that specifically bound each unique target protein.
(§3) Python Script Analysis: For all NEB sequence datasets, a python script was used to translate, trim, and filter the peptide sequences. The script translated the nucleotide sequences, translating amber codons as glutamine in peptide sequences, and then trimmed the end sequences that come from the vector. Secondly, the script combined the unique counts of trimmed peptides with identical sequences. […] Another python script was used to group peptides from different assays according to protein target (Myelin Protein Zero, Myelin Proteolipid Protein, Myelin Basic Protein, and Nidogen-2) and also combine the unique sequence counts for each peptide. An R script was written to merge the peptide sequences from different data files and determine peptides specific for each protein target but absent from different protein binding datasets. Peptide sequences were ranked by unique sequence count.

Sequence of Human MPZ (P25189 30-153 limits assumed): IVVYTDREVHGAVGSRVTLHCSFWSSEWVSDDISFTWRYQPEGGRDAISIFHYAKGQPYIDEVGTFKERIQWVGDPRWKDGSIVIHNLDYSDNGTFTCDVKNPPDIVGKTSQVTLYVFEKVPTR

Point of comparison: SPNTNSH (Human MPZ-binding peptide), Count 40. Against it:
- EGHVWSEYTWGT (Human MPZ-binding peptide) — lower, 37
- SAHSVVE (Human MPZ-binding peptide) — lower, 38
- TTNVTEIERESY (Human MPZ-binding peptide) — lower, 37
- HLDSRRH (Human MPZ-binding peptide) — higher, 46
- WTSVATA (Human MPZ-binding peptide) — higher, 41
- WMTNLDP (Human MPZ-binding peptide) — higher, 43
- CERIGPREC (Human MPZ-binding peptide) — lower, 39
- CQKWFTFAC (Human MPZ-binding peptide) — lower, 39
- YGQSITE (Human MPZ-binding peptide) — lower, 37
- HPFPRFD (Human MPZ-binding peptide) — higher, 45
- NPTSEGA (Human MPZ-binding peptide) — lower, 37
- CIKGEDNQC (Human MPZ-binding peptide) — lower, 38
- MYHDSVS (Human MPZ-binding peptide) — higher, 47
- HNQLLYT (Human MPZ-binding peptide) — lower, 38
- YEGERGA (Human MPZ-binding peptide) — lower, 39
- THSTDLS (Human MPZ-binding peptide) — lower, 37
- FSTTGRG (Human MPZ-binding peptide) — lower, 39
- LVNPFPE (Human MPZ-binding peptide) — lower, 39
- SVAYVPV (Human MPZ-binding peptide) — higher, 46
- LWAKRDA (Human MPZ-binding peptide) — lower, 38
- VVPLKWI (Human MPZ-binding peptide) — the same, 40
- YTPNWHFRWMPA (Human MPZ-binding peptide) — higher, 60
- FSPRDVS (Human MPZ-binding peptide) — lower, 39
- KLPTLSV (Human MPZ-binding peptide) — higher, 44
- GLWRHTM (Human MPZ-binding peptide) — the same, 40
- YSSLTSN (Human MPZ-binding peptide) — lower, 38
- ISSVTVV (Human MPZ-binding peptide) — lower, 37
- AMSNLSY (Human MPZ-binding peptide) — higher, 45
- STHEWRT (Human MPZ-binding peptide) — higher, 45
- LSPPRIM (Human MPZ-binding peptide) — higher, 43
- CEDRQRSMC (Human MPZ-binding peptide) — the same, 40
- FMSDVDH (Human MPZ-binding peptide) — lower, 37

test system: Human Myelin PLP; experiment: Phage display library screening (Example 2, Python script analysis), binding to Human Myelin PLP; details: combined unique sequence count, Python/R script analysis
Procedure: as §1, §2, §3

Point of comparison: LNGISAL (Myelin PLP-binding peptide), Count 32. Against it:
- VTGPGTP (Myelin PLP-binding peptide) — lower, 26
- LPVKNLL (Myelin PLP-binding peptide) — lower, 26
- NIPSSIL (Myelin PLP-binding peptide) — higher, 33
- GKSYSQI (Myelin PLP-binding peptide) — lower, 31
- QRRSVIL (Myelin PLP-binding peptide) — lower, 31
- WSPHRSF (Myelin PLP-binding peptide) — lower, 31
- SLNRGGA (Myelin PLP-binding peptide) — lower, 28
- SWDVLEL (Myelin PLP-binding peptide) — lower, 31
- SVMWMTP (Myelin PLP-binding peptide) — lower, 29
- SAQSRSF (Myelin PLP-binding peptide) — lower, 26
- MPHAPVQ (Myelin PLP-binding peptide) — higher, 37
- YSDTYKH (Myelin PLP-binding peptide) — lower, 30
- VFPERRV (Myelin PLP-binding peptide) — lower, 28
- TQPRYPS (Myelin PLP-binding peptide) — lower, 28
- GNVFQTS (Myelin PLP-binding peptide) — lower, 31
- SVVYQNS (Myelin PLP-binding peptide) — lower, 26
- YSSRLTA (Myelin PLP-binding peptide) — lower, 29
- ASLTLAL (Myelin PLP-binding peptide) — lower, 26
- VSSQEQA (Myelin PLP-binding peptide) — higher, 34
- FSTPTNV (Myelin PLP-binding peptide) — lower, 29
- TTTIADM (Myelin PLP-binding peptide) — lower, 26
- SLPGYRH (Myelin PLP-binding peptide) — lower, 28
- NDASTVS (Myelin PLP-binding peptide) — lower, 28
- LPLRLHA (Myelin PLP-binding peptide) — lower, 31
- YTWTPSR (Myelin PLP-binding peptide) — lower, 28
- QLPRNNL (Myelin PLP-binding peptide) — lower, 28
- TKITPHR (Myelin PLP-binding peptide) — lower, 29
- MKIMPMD (Myelin PLP-binding peptide) — lower, 26
- HLHTRPT (Myelin PLP-binding peptide) — lower, 27
- EPSSFTF (Myelin PLP-binding peptide) — lower, 31
- WSPHGYK (Myelin PLP-binding peptide) — lower, 27
- AHQSSVT (Myelin PLP-binding peptide) — higher, 42
- VSASWMP (Myelin PLP-binding peptide) — lower, 27
- SGVATYT (Myelin PLP-binding peptide) — lower, 31
- WSRISVD (Myelin PLP-binding peptide) — lower, 26
- WHYTPSM (Myelin PLP-binding peptide) — lower, 26
- LMQKPSI (Myelin PLP-binding peptide) — lower, 29
- ALFQERK (Myelin PLP-binding peptide) — lower, 27
- SALISTR (Myelin PLP-binding peptide) — the same, 32
- VTPNKAR (Myelin PLP-binding peptide) — lower, 26
- KPSASIY (Myelin PLP-binding peptide) — lower, 26
- NVFSATP (Myelin PLP-binding peptide) — lower, 31
- SVEKYSK (Myelin PLP-binding peptide) — higher, 33
- GWSTAIR (Myelin PLP-binding peptide) — lower, 29
- IIPPTSV (Myelin PLP-binding peptide) — lower, 31
- GLWGPSL (Myelin PLP-binding peptide) — lower, 26
- IDRVRGL (Myelin PLP-binding peptide) — lower, 29
- ARFVPLT (Myelin PLP-binding peptide) — lower, 30
- VPGHISG (Myelin PLP-binding peptide) — lower, 27
- GHLQSLF (Myelin PLP-binding peptide) — lower, 26
- GPAAVII (Myelin PLP-binding peptide) — lower, 29
- TGISSTP (Myelin PLP-binding peptide) — lower, 27
- SVLPDKL (Myelin PLP-binding peptide) — lower, 28
- TLWAQKT (Myelin PLP-binding peptide) — lower, 28
- DRHEGHR (Myelin PLP-binding peptide) — lower, 26
- LPSHASI (Myelin PLP-binding peptide) — lower, 26
- SGLHYAL (Myelin PLP-binding peptide) — the same, 32
- IRPTHNG (Myelin PLP-binding peptide) — lower, 27
- EVLYPNN (Myelin PLP-binding peptide) — lower, 27
- TRASYPQ (Myelin PLP-binding peptide) — the same, 32
- FRIDKSM (Myelin PLP-binding peptide) — lower, 26
- SLPSLLP (Myelin PLP-binding peptide) — lower, 26
- RLQPEPT (Myelin PLP-binding peptide) — higher, 33
- DGSRDLV (Myelin PLP-binding peptide) — lower, 30
- GSAWKKH (Myelin PLP-binding peptide) — higher, 44
- TDVEMVP (Myelin PLP-binding peptide) — higher, 40
- VGYRSAS (Myelin PLP-binding peptide) — lower, 28
- EKSTTVA (Myelin PLP-binding peptide) — lower, 30
- FSLDRDG (Myelin PLP-binding peptide) — lower, 29
- GIPSSKN (Myelin PLP-binding peptide) — lower, 28

test system: Laminin 421/521; experiment: Phage display library screening (Example 2), NEB laminin-binding peptides; parameters: species or system human; details: Laminin 421/521, not 211 and 411; combined unique sequence count, Python/R script analysis
In short: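 M13 phage libraries (7- or 12-mer random or cyclic CX7C peptides on pIII) panned up to 4 rounds against plate-coated laminins LN211, LN411, LN421, LN521, 24 h at 4 °C; elution with 0.2M glycine pH 2.0. NextGen sequencing of pools after rounds 2–4; peptides binding 421/521 but not 211/411 identified.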

For “EGHVWSEYTWGT (Human MPZ-binding peptide)”, the Count was 50.
